Measurements taken from patent US8846746B2, “Pyrazole compound and pharmaceutical use thereof” (Japan Tobacco Inc., priority 2011, dated 2014).

These molecules were tested against human SGLT1 (Homo sapiens (Human), UniProt P13866) (assay: SGLT1 inhibitory activity: 14C-AMG uptake into CHO-K1 cell line stably expressing human SGLT1). Settings: 14C-AMG uptake, CHO-K1 cells expressing human SGLT1.
Assay type: cell-based
Experimental: SGLT1 inhibitory activity of a test compound (IC50 value) was calculated based on an amount of intake into a cell of labeled α-methyl-D-glucopyranoside (^14C-AMG) which is transported by SGLT1.
1) Construction of Human SGLT1 Expression Plasmid
A DNA fragment containing human SGLT1, wherein NheI recognition and cleavage sequence was added upstream of a Kozac consensus sequence of the vector; and a stop codon (TAG) and a SalI recognition and cleavage sequence was added just downstream of a coding region of the human SGLT1, was amplified by PCR using pCMV6-hSGLT1 (OriGene) as a template. The purified DNA fragment was cleaved by restriction enzymes NheI and SalI, and the obtained fragment was ligated into pcDNA3.1 (+) which was cleaved by NheI and XhoI to construct human SGLT1 expression plasmid.
2) Establishment of Stable Cell Lines Expressing Human SGLT1
A human SGLT1 expression plasmid pcDNA-hSGLT1 was transfected into CHO-K1 cells by Lipofectamine-2000 (Invitrogen). The cells were cultured in the presence of G418 (Nakalai tesque) and drug-resistant cells were selected. A cell line having the highest S/B ratio of an amount of ^14C-AMG uptake per cell treated by solvent to an amount of ^14C-AMG uptake per cell treated by phlorizin (SGLT inhibitor) was selected from the drug-resistant cells as a stable cell lines expressing human SGLT1.
3) Evaluation of SGLT1 Inhibitory Activity
The stable cell line expressing human SGLT1 was seeded at 5×10^4 cells/well on BioCoat™ Poly-D-Lysine 96 well plate with Lid (Becton Dickinson and Company) and cultured at 37° C. under 5% CO2 overnight. The medium was replaced with 100 μL/well of a Na (−) buffer (140 mM choline chloride, 2 mM KCl, 1 mM MgCl2, 1 mM CaCl2, 10 mM HEPES, 5 mM Tris, pH7.4) followed by incubation for 20 minutes at 37° C. under 5% CO2. After removing the Na (−) buffer, a test compound solution which was prepared from Na (+) buffer (140 mM NaCl, 2 mM KCl, 1 mM MgCl2, 1 mM CaCl2, 10 mM HEPES, 5 mM Tris, pH7.4) containing BSA was added thereto at 40 μL/well. In addition, Na (+) buffer containing 8 kBq of ^14C-AMG and 2 mM AMG was added thereto at 40 μL/well, and was mixed well. Na (−) buffer containing BSA was added to a blank well at 40 μL/well and additionally adding a Na (+) buffer containing 8 kBq of ^14C-AMG and 2 mM AMG, and was mixed well. Cells were incubated for 1 hour at 37° C. under 5% CO2. After the reaction, the cells were washed twice with 100 μL/well of iced wash buffer (100 mM AMG, 140 mM choline chloride, 2 mM KCl, 1 mM MgCl2, 1 mM CaCl2, 10 mM HEPES, 5 mM Tris, pH7.4), then lysed in 50 μL/well of a 0.2N aqueous solution of NaOH. The cell lysate was transferred to OptiPlate96 (Perkin-Elmer) and 100 μL/well of MicroScint-40 (Perkin-Elmer) was dispensed. The radioactivity was counted by TOPCOUNT NXT (Perkin-Elmer).
A data was obtained by deducting the average value (CPM) of blank wells from the average value (CPM) of each treated well. The inhibition ratio (%) was calculated by the following formula: inhibition rate (%)=[(A−B)/A]×100, where A is a data of the solvent control, and B is a data of a test compound.

Sequence of human SGLT1 (P13866 whole entry): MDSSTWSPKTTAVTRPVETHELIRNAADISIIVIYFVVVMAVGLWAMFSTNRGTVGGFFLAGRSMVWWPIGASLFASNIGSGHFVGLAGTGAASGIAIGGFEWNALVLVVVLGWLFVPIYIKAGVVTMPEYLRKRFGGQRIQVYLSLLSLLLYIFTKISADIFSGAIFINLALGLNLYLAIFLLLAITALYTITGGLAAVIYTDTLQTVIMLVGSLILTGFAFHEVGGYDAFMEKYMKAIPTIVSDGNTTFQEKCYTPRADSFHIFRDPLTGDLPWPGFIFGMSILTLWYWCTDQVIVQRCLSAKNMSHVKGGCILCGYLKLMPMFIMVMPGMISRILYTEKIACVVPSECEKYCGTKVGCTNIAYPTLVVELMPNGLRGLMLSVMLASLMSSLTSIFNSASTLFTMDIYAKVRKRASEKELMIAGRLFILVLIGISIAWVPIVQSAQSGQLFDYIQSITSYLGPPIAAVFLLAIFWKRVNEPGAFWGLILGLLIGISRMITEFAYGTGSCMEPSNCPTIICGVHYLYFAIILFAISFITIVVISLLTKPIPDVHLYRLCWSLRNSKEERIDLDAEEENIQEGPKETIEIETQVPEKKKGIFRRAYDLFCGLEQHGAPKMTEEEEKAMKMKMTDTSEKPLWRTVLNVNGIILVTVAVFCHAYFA

SMILES | IC50 [nM]
O=C1C[C@@H](C(=O)Nc2cc(C3CCCC3)n(-c3ccccc3)n2)CN1 [Example 63] | 2400
CCCc1cccc(-c2cc(NC(=O)C3CC(=O)NC3C)nn2-c2ccccc2)c1 (single isomer, unassigned) [Example 19] | 33
O=C1C[C@@H](C(=O)Nc2cc(-c3cccc(OCC(F)(F)F)c3)n(-c3ccccc3Cl)n2)CN1 [Example 214] | 2.3
O=C1C[C@@H](C(=O)Nc2cc(-c3cccc(OCCC(F)(F)F)c3)n(-c3ccccc3)n2)CN1 [Example 149] | 9.5
COc1cccc(-n2nc(NC(=O)[C@H]3CNC(=O)C3)cc2-c2cccc(OC(F)(F)F)c2)c1 [Example 163] | 7.1
C[C@H]1C(=O)NC[C@@H]1C(=O)Nc1cc(-c2cccc(OC(F)(F)F)c2)n(CCC2CCOCC2)n1 [Example 232] | 32

Continued, values first:

IC50 [nM] | SMILES
14 | CCCc1cccc(-c2cc(NC(=O)[C@H]3CNC(=O)C3)nn2CCC2CCCC2)c1 [Example 137]
4.6 | CCCc1cccc(-c2cc(NC(=O)C3CNC(=O)C3)nn2-c2ccccc2)c1 (racemic) [Example 11]
75 | CC(C)(C)c1cccc(-c2cc(NC(=O)C3CCC(=O)NC3)nn2C2CCOCC2)c1 (single isomer, unassigned) [Example 186]
3.3 | CC(C)(C)c1cccc(-c2cc(NC(=O)[C@H]3CNC(=O)C3)nn2-c2ccc(Cl)cc2)c1 [Example 153]
30 | CCCc1cccc(-c2cc(NC(=O)[C@H]3CNC(=O)C3)nn2Cc2ccccc2)c1 [Example 98]
12 | CCCc1cccc(-c2cc(NC(=O)[C@@H]3CNC(=O)C3)nn2-c2ccc(C)cc2)c1 [Example 49]
8.7 | Cc1ccc(-n2nc(NC(=O)[C@H]3CNC(=O)C3)cc2-c2cccc(OCC(F)(F)F)c2)cc1 [Example 216]
3.9 | CCCc1cc(F)cc(-c2cc(NC(=O)[C@@H]3CNC(=O)C3)nn2-c2ccccc2)c1 [Example 75]
8.6 | O=C1C[C@@H](C(=O)Nc2cc(-c3cccc(OC(F)(F)F)c3)n(-c3ccccc3)n2)CN1 [Example 4, (R)-5-oxopyrrolidine-3-carboxylic acid[1-phenyl-5-(3-trifluoromethoxyphenyl)-1H-pyrazol-3-yl]amide]
1.7 | CCCc1cccc(-c2cc(NC(=O)[C@H]3CNC(=O)C3)nn2-c2cccc(C)c2)c1 [Example 76]

Same assay, conditions: 14C-AMG uptake, CHO-K1 cells stably expressing human SGLT1

SMILES | IC50 [nM]
CCCc1cccc(-c2cc(NC(=O)[C@@H]3COC(=O)N3)nn2-c2ccccc2)c1 [Example 368] | 56
O=C1C[C@H](C(=O)Nc2cc(-c3cccc(COCC(F)(F)F)c3)n(-c3ccc(Cl)cc3)n2)CN1 [Example 508] | 20
CCCc1cccc(-c2cc(NC(=O)[C@@H]3CNC(=O)C3)nn2-c2cccc(OC(C)(C)C)c2)c1 [Example 435] | 3.45
CCCc1cccc(-c2cc(NC(=O)[C@@H]3CNC(=O)C3)nn2-c2cccc(OCCOCc3ccccc3)c2)c1 [Example 407] | 7.6
CCOc1cccc(-n2nc(NC(=O)[C@@H]3CNC(=O)C3)cc2-c2cccc(OC(F)(F)F)c2)c1F [Example 477] | 25
CC(C)(C)OCc1cccc(-c2cc(NC(=O)C3CCC(=O)NC3)nn2-c2ccccc2)c1 (single isomer, unassigned) [Example 336] | 25
CCCCc1cccc(-c2cc(NC(=O)[C@@H]3CNC(=O)N3)nn2-c2ccccc2)c1 [Example 268] | 8.5
O=C1C[C@H](C(=O)Nc2cc(-c3cccc(OC(F)(F)F)c3)n(-c3cccc(F)c3)n2)CN1 [Example 467] | 26
CCCc1cccc(-c2cc(NC(=O)[C@@H]3CNC(=O)C3)nn2-c2cccc(OCC(C)C)c2)c1 [Example 381] | 11.5
CCCCOc1cccc(-c2cc(NC(=O)[C@@H]3CNC(=O)C3)nn2-c2ccccc2)c1 [Example 316] | 39
CCCc1cccc(-c2cc(NC(=O)[C@@H]3CNC(=O)C3)nn2-c2ccc(CC)cc2)c1 [Example 403] | 12
COCCOc1cccc(-n2nc(NC(=O)[C@@H]3CNC(=O)C3)cc2-c2cccc(COCC(F)(F)F)c2)c1F [Example 483] | 59
CC(C)(C)OCc1cccc(-c2cc(NC(=O)[C@@H]3CNC(=O)C3)nn2-c2ccccc2)c1 [Example 313] | 19.5
O=C1NC[C@H](C(=O)Nc2cc(-c3cccc(OC(F)(F)F)c3)n(-c3ccccc3)n2)N1 [Example 267] | 81
CC(C)COc1cccc(-c2cc(NC(=O)[C@H]3CNC(=O)C3)nn2-c2ccccc2)c1 [Example 287] | 12
CCOc1cc(-n2nc(NC(=O)[C@@H]3CNC(=O)C3)cc2-c2cccc(COCC(F)(F)F)c2)ccc1F [Example 417] | 4.3
C[C@@H](OCc1cccc(-c2cc(NC(=O)[C@@H]3CNC(=O)C3)nn2-c2ccc(F)cc2)c1)C(F)(F)F [Example 238, (S)-5-oxopyrrolidine-3-carboxylic acid{1-(4-fluorophenyl)-5-[3-((R)-2,2,2-trifluoro-1-methylethoxymethyl)phenyl]-1H-pyrazol-3-yl}amide] | 7.9
O=C1NC[C@H](C(=O)Nc2cc(-c3cccc(COCC(F)(F)F)c3)n(-c3ccccc3)n2)O1 [Example 305] | 29
C[C@@H](OCc1cc(F)cc(-c2cc(NC(=O)[C@@H]3CNC(=O)C3)nn2-c2ccc(F)cc2)c1)C(F)(F)F [Example 239, (S)-5-oxopyrrolidine-3-carboxylic acid{1-(4-fluorophenyl)-5-[3-fluoro-5-((R)-2,2,2-trifluoro-1-methylethoxymethyl)phenyl]-1H-pyrazol-3-yl}amide] | 7

The remaining lines, values ahead:

IC50 [nM] | SMILES
9.3 | C[C@@H](OCc1cc(F)cc(-c2cc(NC(=O)[C@H]3CNC(=O)O3)nn2-c2ccc(Cl)cc2)c1)C(F)(F)F [Example 571]
16 | CCC1C(=O)NCC1C(=O)Nc1cc(-c2cccc(OC(F)(F)F)c2)n(-c2ccccc2)n1 (single isomer, unassigned) [Example 308]
5.7 | CC(C)CSc1cccc(-c2cc(NC(=O)[C@@H]3CNC(=O)C3)nn2-c2ccccc2)c1 [Example 546]
20 | O=C1NC[C@H](C(=O)Nc2cc(-c3cccc(COC(C(F)(F)F)C(F)(F)F)c3)n(-c3ccccc3)n2)O1 [Example 366]
43 | C[C@@H](OCc1cccc(-c2cc(NC(=O)[C@@H]3CCC(=O)N3)nn2-c2ccccc2)c1)C(F)(F)F [Example 547]
18 | CCCc1cccc(-c2cc(NC(=O)C3CC(=O)NC3C)nn2-c2ccccc2)c1 (single isomer, unassigned) [Example 404]
81 | O=C1C[C@H](C(=O)Nc2cc(-c3cccc(OC(F)(F)F)c3)n(-c3ccc(F)cc3)n2)CN1 [Example 502]

Same assay, conditions: CHO-K1, at 0.1 uM

inhibition at 0.1 µM [%] | SMILES
38 | CCCc1cc(CO)cc(-c2cc(NC(=O)[C@H]3CNC(=O)C3)nn2-c2ccccc2)c1 [Example 146]
29 | O=C1C[C@H](C(=O)Nc2cc(-c3cccc(S(=O)(=O)CC(F)(F)F)c3)n(-c3ccccc3)n2)CN1 [Example 550]
8 | O=C1C[C@H](C(=O)Nc2cc(-c3cccc(C(=O)NCC(F)(F)F)c3)n(-c3ccccc3)n2)CN1 [Example 433]

Same assay, conditions: at 0.3 uM

human SGLT1 % Inhibition [%] | SMILES
7 | CCCc1cccc(-c2cc(NC(=O)C3CCCC(=O)NC3)nn2-c2ccccc2)c1 (centres unmarked) [Example 255]
3 | CCCc1cccc(-c2cc(NC(=O)C3CCCC(=O)NC3)nn2-c2ccccc2)c1 (centres unmarked) [Example 256]
